In US5004758A, “Water soluble camptothecin analogs useful for inhibiting the growth of animal tumor cells” (priority 1988, dated 1991):
Where a name gives a salt, the structure may show the parent alone. Read-outs that look alike come from different tables or passages of the source.

Assays:
[1] = reported by Wani et al., J. Med. Chem., 30, 1774 (1987); cited from earlier work
[2] = tested on: ip B16 melanoma; conditions: ip B16 Melanoma; optimal doses and optimal schedules
Source text: (§2) Tumors used in these studies--P388 leukemia and its doxorbicin--and mitoxanrone-resistant sublines, L1210 leukemia, B16 melanoma, B16 melanoma/F10 subline, M5076 sarcoma and colon carcinoma 26--are maintained by serial transplantation in syngeneic strains of mice. For the leukemias, these tumors are maintained in DBA/2 mice. The M5076 sarcoma, the B16 melanoma and its F10 subline are maintained in C57B1/6 mice and the colon sarcinoma 26 is maintained in BALB/c mice. The leukemias and the M5076 sarcoma are serially transplanted i.p. as ascites cell suspensions while the B16 melanoma lines and the colon carcinoma 26 are serially transplanted as s.c. solid tumors.
(§3) For therapeutic trials, tumors are aseptically removed from donor mice and prepared as suspensions for implantation ip into test animals. The test animals for the colon carcinoma 26 are female BALB/c mice (20-25 gm). The test animals for the other tumor models are syngeneic female F1 hybrid B6D2F1 mice (C57B1/6 x DBA/2). The inoculum level varies with the type of tumor: P388 leukemia is inoculated at 10^6 cells per mouse, L1210 leukemia at 10^5 or 10^6 cells per mouse, M5076 sarcoma at 5×10^6 cells per mouse. For implantation of the B16 melanoma lines and the colon carcinoma 26, s.c. tumors from donor mice are minced and homogenized in loose fitting teflon glass homogenizer to give a tumor brei. The inoculum levels are 0.5 ml of a 10 percent (w:v) brei of the B16 melanoma lines and 0.5 ml of a 5 percent (w:v) brei of colon carcinoma 26. After tumor inoculation, mice randomized to treatment groups comprised of 6-8 mice each. In each experiment, there are three groups of untreated control mice. Drugs are dissolved or suspended in appropriate aqueous vehicles and given by a variety of routes and schedules of administration over a range of dose levels. Animals are housed in shoebox cages and are monitored daily for mortality for 30 (L1210), 45 (P388) or 60 (B16, M5076, colon 26) days.

[3] = tested on: L1210 leukemia cells; assay: cells; type: cell-based, mouse
Description: Cells were exposed continuously upon cloning into medium containing 0.2 percent Noble agar. After incubation at 37° C. in a CO2 incubator for 3 days, colonies were stained with viable cell specific formazan stain and, 24 hours later, were enumerated by a colony counter (Biotran II, New Brunswick Scientific Co., Edison, N.J.) adjusted to identify colonies of more than 50 cells. The concentration which reduced cloning efficiency by 50 percent IC50) was determined by interpolation.

[4] = tested on: ip colon carcinoma 26; assay: ip-implanted colon carcinoma 26 in mice; type: in vivo, mouse; conditions: ip Colon Carcinoma 26; optimal doses and optimal schedules
Source text: as §2, §3

[5] = tested on: sc M5076 sarcoma; assay: sc-implanted M5076 sarcoma in mice; type: in vivo, mouse; conditions: sc M5076 Sarcoma; optimal doses and optimal schedules
Source text: (§1) The inoculum varies with the tumor.

[6] = tested on: sc ADJ-PC6 plasmacytoma; assay: sc-implanted ADJ-PC6 plasmacytoma in mice; type: in vivo, mouse; conditions: sc ADJ-PC6 Plasmacytoma; optimal doses and optimal schedules
Description: (§4) Inhibition of tumor growth (TGI) is based on mean tumor volume of groups of 7 or 8 mice relative to untreated controls. Tumors were measured between Days 12 and 19 (except Day 24 for Colon 51 and Day 31 for Colon 38).
(§5) Tumors used in these studies are maintained by serial transplantation in syngeneic strains of mice C57BL/6 for Lewis lung carcinoma, B16 melanoma and its F10 subline, M5076 sarcoma and colon adenocarcinoma 38; BALB/c for colon carcinoma 26, ADJ-PC6 plasmacytoma Madison lung carcinoma and colon adenocarcinoma 51, C3H for mammary adenocarcinoma 16/c. With the exception of the M5076 sarcoma, which is maintained as a i.p ascites cell suspension, all of the tumors were serially transplanted as s.c. solid tumors.
(§6) For therapeutic trials, tumors were aseptically removed from donor mice and prepared for implantation s.c. into test animals. The test animals for Lewis lung carcinoma, B16 melanoma and its F10 subline, M5076 sarcoma and colon adenocarcinoma 38 are syngeneic female F1 hybrid B6D2F mice (C57B1/6×DBA/2). ADJ-PC6 plasmacytoma and colon carcinoma 26 are evaluated in female BALB/c mice. Madison lung carcinoma and colon adenocarcinoma 51 are evaluated in syngeneic female F1 hybrid CD2F1 mice (BALB/c×DBA/2). Mammary adenocarcinoma 16/c is evaluated in female C3H mice. The inoculum varies with the tumor. Colon adenocarcinomas 38 is implanted as 2 mm fragments by trochar. M5076 sarcoma and ADJ-PC6 plasmacytoma are implanted as cell suspensions at 5×10^6 and 2×10^6 cells per mouse, respectively. Colon carcinoma 26, colon adenocarcinoma 51, Lewis lung carcinoma, Madison lung carcinoma and B16 melanoma and its F10 subline are implanted as tumor breis prepared as described above in a volume of 0.5 ml. The brei concentration was 10 percent (w:v) except for colon carcinoma 26 for which the brei concentration was 5 percent (w:v). After tumor inoculation, mice are randomized to treatment groups of 7 or 8 mice. In each experiment, there are three groups of untreated control mice.
(§7) Drugs are dissolved or suspended in appropriate aqueous vehicles and given by a variety of routes of administration and treatment schedules over a range of dosage levels. Animals are housed in shoebox cages and are monitored daily for mortality. […] Time for tumor measurement is dependent on the different rates of tumor growth of the different tumors: the most rapidly growing tumors such as the Lewis and Madison lung tumors, B16 melanoma and its F10 subline were measured between Days 12 and 16. The slower growing tumors were measured at later time points--17 days for M5076 sarcoma, 16 or 19 days for mammary adenocarcinoma 16/c, 19 days for ADJ-PC6 plasmacytoma and colon carcinoma 26, 24 days for colon adenocarcinoma 51, and 31 days for colon adenocarcinoma 38.

[7] = tested on: ip B16 melanoma/F10 subline; conditions: ip B16 Melanoma/F10 Subline; optimal doses and optimal schedules
Source text: as §2, §3

[8] = tested on: ip M5076 sarcoma; assay: ip-implanted M5076 sarcoma in mice; type: in vivo, mouse; conditions: ip M5076 Sarcoma; optimal doses and optimal schedules
Source text: as §2, §3

[9] = tested on: sc Lewis lung carcinoma; type: in vivo, mouse; conditions: sc Lewis Lung Carcinoma; optimal doses and optimal schedules
Source text: as §1

[10] = ip-implanted L1210 leukemia in mice; conditions: mouse, in vivo, ip;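 note: each mouse received 10^6 L1210 cells intraperitoneally, with drug treatment also given by the i.p. route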
Description: (§8) For in vivo studies L1210 cells were implanted i.p. (10^6 per mouse)
(§9) and drugs were administered i.p. on Days 1 and 5. Increase in lifespan
(§10) (ILS) was based on median survival time of groups of 6 mice treated at th
maximally tolerated dose of the drugs.

[11] = tested on: ip L1210 leukemia; assay: ip-implanted L1210 leukemia in mice;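 for all read-outs here: each mouse received 10^6 L1210 cells intraperitoneally, with drug treatment also given by the i.p. route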; conditions: for In Vivo Antitumor Activity ILS (increase in lifespan): ip L1210 (10^6 cells), drug i.p. Days 1 and 5 at maximally tolerated dose; for Increase in Lifespan (ILS) or Inhibition of Tumor Growth (TGI): ip L1210 Leukemia, optimal doses and optimal schedules
Description: as §8, §9, §10
maximally tolerated dose of the drugs.

[12] = tested on: sc Madison lung carcinoma; assay: sc-implanted Madison lung carcinoma in mice; type: in vivo, mouse; conditions: sc Madison Lung Carcinoma; optimal doses and optimal schedules
Source text: as §1

[13] = tested on: sc B16 melanoma/F10 subline; assay: sc-implanted B16 melanoma/F10 subline in mice; type: in vivo, mouse; conditions: sc B16 Melanoma/F10 Subline; optimal doses and optimal schedules
Source text: as §1

[14] = tested on: sc colon carcinoma 26; assay: sc-implanted colon carcinoma 26 in mice; type: in vivo, mouse; conditions: sc Colon Carcinoma 26; optimal doses and optimal schedules
Source text: as §1

[15] = tested on: ip P388 leukemia; conditions: ip P388 Leukemia; optimal doses and optimal schedules
Description: Increase in lifespan (ILS) is based on median survival time of groups of 6 mice. Net tumor cell kill (NCK) is calculated from median survival time by standard methods, since survival time is a linear function of the log tumor cell burden.
Animals were implanted ip with 10^6 cells. Increase in lifespan (ILS) is based on median survival time of groups of 6 mice relative to untreated controls. Long-term survivors were tumor-free on Day 45.
as §2, §3

[16] = tested on: sc mammary adenocarcinoma 16/c; assay: in vivo; design: species or system mouse; conditions: sc Mammary Adenocarcinoma 16/c; optimal doses and optimal schedules
Source text: as §1

[17] = tested on: iv P388 leukemia; conditions: iv P388 Leukemia; optimal doses and optimal schedules
Source text: (§11) Tumors used in these studies P388 leukemia, L1210 leukemia and Lewis lung carcinoma--are maintained by serial transplantation in syngeneic strains of mice, DBA/2 for the leukemias and C57B1/6 for Lewis lung carcinoma. The leukemias are serially transplanted i.p. as ascites cell suspensions while the Lewis lung carcinoma is serially transplanted as a s.c. solid tumor.
(§12) For therapeutic trials, tumors were aseptically removed from donor mice and prepared as suspensions for implantation into test animals which for each tumor are syngeneic female F1 hybrid B6D2F1 mice (C57B1/6×DBA/2). The inoculum level varies with the type of tumor: P388 leukemia is inoculated at 10^6 cells per mouse, L1210 leukemia at 10^5 or 10^6 cells per mouse, and Lewis lung carcinoma at 0.25 ml of a 10 percent (w:v) brei. […] After tumor inoculation, mice are randomized to treatment groups of 6 to 8 mice each. In each experiment, there are three groups of untreated control mice.
(§13) Drugs are dissolved or suspended in appropriate aqueous vehicles and given i.p. or i.v. on various treatment schedules over a range of dosage levels. Animals are housed in shoebox cages and monitored daily for mortality for 30 (L1210), 45 (P388) or 60 (Lewis lung) days.

[18] = Aqueous solubility; type: physicochemical
[19] = tested on: iv L1210 leukemia; conditions: for Increase in Lifespan (ILS) or Inhibition of Tumor Growth (TGI): iv L1210 Leukemia, optimal doses and optimal schedules; for ILS: iv L1210 (10^6 cells), Days 1 & 5, route ip in table head (iv)
Source text: (§14) Animals were inoculated iv with 10^6 cells. Increase in lifespan (ILS) is based on median survival time of groups of 6 mice relative to untreated controls.
(§15) The protocols utilized for the evaluation of the antitumor activity of Formula (I) compounds are well established and widely utilized by those skilled in the art of assessing the activity of drugs in preclinical tumor models. These studies generally follow the protocols established by the National Cancer Institute as described by Geran et al., Cancer Chemotherapy Reports, Part 3, Vol. 3, 1-103, 1972.
as §11, §12, §13

[20] = in vivo; conditions: mouse, ip
Description: as §8, §9, §10
maximally tolerated dose of the drugs.

[21] = in vivo; conditions: mouse, iv
Source text: as §14, §15, §11, §12, §13

[22] = tested on: sc colon adenocarcinoma 51; type: in vivo, mouse; conditions: sc Colon Adenocarcinoma 51; optimal doses and optimal schedules
Source text: as §1

[23] = tested on: sc B16 melanoma; conditions: sc B16 Melanoma; optimal doses and optimal schedules
Source text: Inhibition of tumor growth (TGI) is based on mean tumor volume of groups of 7 or 8 mice relative to untreated controls.
as §5, §6, §7
For highly metastatic tumors including: Lewis and Madison lung tumors, colon carcinoma 26 and B16 melanoma and its F10 subline, tumor-bearing mice are monitored for survival time as well. For the less mestastatic tumor models, tumor-bearing mice are killed following tumor measurement. In this setting, an increase in lifespan of ≥30 percent is considered to be evidence of drug activity.

[24] = tested on: sc colon adenocarcinoma 38; conditions: sc Colon Adenocarcinoma 38; optimal doses and optimal schedules
Description: as §4, §5, §6, §7

[25] = Mus musculus, L1210, read-out: In Vitro Activity IC50

## CCC1(O)C(=O)OCc2c1cc1n(c2=O)Cc2cc3ccc(CN)cc3nc2-1 (stereo not shown) [11-aminomethyl analog]
[1]
  activity in an assay for antitumor activity: inactive

## CCC1(O)C(=O)OCc2c1cc1n(c2=O)Cc2cc3ccc(C#N)cc3nc2-1 (stereo not shown) [11-cyano]
[1]
  activity in an assay for antitumor activity: active

## CCC1(O)C(=O)OCc2c1cc1n(c2=O)Cc2cc3ccc(N)cc3nc2-1 (stereo not shown) [11-amino]
[1]
  activity in an assay for antitumor activity: active

## CCC1(O)C(=O)OCc2c1cc1n(c2=O)Cc2cc3ccc([N+](=O)[O-])cc3nc2-1 (stereo not shown) [11-nitro]
[1]
  activity in an assay for antitumor activity: active

## CC[C@@]1(O)C(=O)OCc2c1cc1n(c2=O)Cc2cc3cc(O)ccc3nc2-1 [10-Hydroxycamptothecin, (20 S) 10-Hydroxycamptothecin, reference compound]
[2]
  Increase in Lifespan (ILS) or Inhibition of Tumor Growth (TGI): 95 % ILS
[3]; L1210 suspension culture, continuous exposure, cloning into soft agar, read-out: In Vitro Activity IC50
  IC50: 18 nM
[4]
  Increase in Lifespan (ILS) or Inhibition of Tumor Growth (TGI): Curative
[5]
  Increase in Lifespan (ILS) or Inhibition of Tumor Growth (TGI): 66 % TGI
[6]
  Increase in Lifespan (ILS) or Inhibition of Tumor Growth (TGI): 76 % TGI
[7]
  Increase in Lifespan (ILS) or Inhibition of Tumor Growth (TGI): 100 % ILS
[8]
  Increase in Lifespan (ILS) or Inhibition of Tumor Growth (TGI): 98 % ILS
[9]
  Increase in Lifespan (ILS) or Inhibition of Tumor Growth (TGI): 4 % TGI
[10]
  MTD: 9 mg/kg
[11]
  In Vivo Antitumor Activity ILS (increase in lifespan): 94%
  Increase in Lifespan (ILS) or Inhibition of Tumor Growth (TGI): 94 % ILS
[12]
  Increase in Lifespan (ILS) or Inhibition of Tumor Growth (TGI): 33 % TGI
[13]
  Increase in Lifespan (ILS) or Inhibition of Tumor Growth (TGI): 58 % TGI
[14]
  Increase in Lifespan (ILS) or Inhibition of Tumor Growth (TGI): 37 % TGI
[15]
  Increase in Lifespan (ILS) or Inhibition of Tumor Growth (TGI): Curative
[16]
  Increase in Lifespan (ILS) or Inhibition of Tumor Growth (TGI): 61 % TGI
[17]
  Increase in Lifespan (ILS) or Inhibition of Tumor Growth (TGI): 40 % ILS
[18]
  solubility in water / aqueous vehicles: insolubility in aqueous vehicles
[19]
  Increase in Lifespan (ILS) or Inhibition of Tumor Growth (TGI): 100 % ILS

## CC[C@@](O)(C(=O)O)c1cc2n(c(=O)c1CO)Cc1cc3c(CN(C)C)c(O)ccc3nc1-2 [21S, Sodium Salt]
[20]
  MTD: 54 mg/kg
[21]
  MTD: 54 mg/kg
[11]
  In Vivo Antitumor Activity ILS (increase in lifespan): > 200%
[19]; by maximally tolerated dose, iv L1210
  fold less potent than the three acid salts: about 3.5 fold
[19]; 6.5 mg/kg
  ILS: 33%
[19]; 12 mg/kg
  ILS: 67%
[19]; 19 mg/kg
  ILS: 100%
[19]; 32 mg/kg
  ILS: 133%
[19]; 54 mg/kg
  ILS: 208%
[19]; 90 mg/kg
  ILS: toxic

## CC[C@@]1(O)C(=O)OCc2c1cc1n(c2=O)Cc2cc3c(CSCCN(C)C)c(O)ccc3nc2-1 [14S, (20 S) 9-N,N-Dimethylaminoethylthiomethyl-10-hydroxycamptothecin Hydrochloride Salt]
[3]; [25]
  IC50: 12 nM
[10]
  MTD: 42 mg/kg
[11]
  In Vivo Antitumor Activity ILS (increase in lifespan): 112%

## CC[C@@]1(O)C(=O)OCc2c1cc1n(c2=O)Cc2cc3c(CN4CCOCC4)cccc3nc2-1 [18S, (20S) 9-Morpholinomethylcamptothecin]
[3]; [25]
  IC50: 690 nM
[10]
  MTD: 13 mg/kg
[11]
  In Vivo Antitumor Activity ILS (increase in lifespan): 144%

## CC[C@@]1(O)C(=O)OCc2c1cc1n(c2=O)Cc2cc3c(CC#N)c(O)ccc3nc2-1 [17S, (20S) 10-Hydroxy-9-cyanomethylcamptothecin]
[3]; [25]
  IC50: 400 nM
[10]
  MTD: 12 mg/kg
[11]
  In Vivo Antitumor Activity ILS (increase in lifespan): > 200%

## CC[C@@]1(O)C(=O)OCc2c1cc1n(c2=O)Cc2cc3cc(C#N)ccc3nc2-1 [16S, 10-Cyanocamptothecin]
[3]; [25]
  IC50: 80 nM
[10]
  MTD: 3 mg/kg
[11]
  In Vivo Antitumor Activity ILS (increase in lifespan): 100%

## CC[C@@]1(O)C(=O)OCc2c1cc1n(c2=O)Cc2cc3c(CN4CCOCC4)c(O)ccc3nc2-1 [5S]
[3]; [25]
  IC50: 370 nM
[10]
  MTD: 100 mg/kg
[11]
  In Vivo Antitumor Activity ILS (increase in lifespan): 83%

## CC[C@@]1(O)C(=O)OCc2c1cc1n(c2=O)Cc2cc3ccccc3nc2-1 [Camptothecin]
[2]
  Increase in Lifespan (ILS) or Inhibition of Tumor Growth (TGI): 36 % ILS
[4]
  Increase in Lifespan (ILS) or Inhibition of Tumor Growth (TGI): 50 % ILS
[5]
  Increase in Lifespan (ILS) or Inhibition of Tumor Growth (TGI): 100 % TGI
[6]
  Increase in Lifespan (ILS) or Inhibition of Tumor Growth (TGI): 100 % TGI
[7]
  Increase in Lifespan (ILS) or Inhibition of Tumor Growth (TGI): 68 % ILS
[8]
  Increase in Lifespan (ILS) or Inhibition of Tumor Growth (TGI): 81 % ILS
[9]
  Increase in Lifespan (ILS) or Inhibition of Tumor Growth (TGI): 92 % TGI
[22]
  Increase in Lifespan (ILS) or Inhibition of Tumor Growth (TGI): 75 % TGI
[11]
  Increase in Lifespan (ILS) or Inhibition of Tumor Growth (TGI): 172 % ILS
[12]
  Increase in Lifespan (ILS) or Inhibition of Tumor Growth (TGI): 63 % TGI
[13]
  Increase in Lifespan (ILS) or Inhibition of Tumor Growth (TGI): 90 % TGI
[14]
  Increase in Lifespan (ILS) or Inhibition of Tumor Growth (TGI): 66 % TGI
[15]
  Increase in Lifespan (ILS) or Inhibition of Tumor Growth (TGI): Curative
[23]
  Increase in Lifespan (ILS) or Inhibition of Tumor Growth (TGI): 78 % TGI
[16]
  Increase in Lifespan (ILS) or Inhibition of Tumor Growth (TGI): 99 % TGI
[17]
  Increase in Lifespan (ILS) or Inhibition of Tumor Growth (TGI): 75 % ILS
[18]
  solubility in water / aqueous vehicles: insolubility in aqueous vehicles
[19]
  Increase in Lifespan (ILS) or Inhibition of Tumor Growth (TGI): 136 % ILS
[24]
  Increase in Lifespan (ILS) or Inhibition of Tumor Growth (TGI): 100 % TGI

## CC[C@@]1(O)C(=O)OCc2c1cc1n(c2=O)Cc2cc3c(CN4CCC(N5CCCCC5)CC4)c(O)ccc3nc2-1 [7S]
[3]; [25]
  IC50: 270 nM
[10]
  MTD: > 42 mg/kg
[11]
  In Vivo Antitumor Activity ILS (increase in lifespan): 44%

## CC[C@@]1(O)C(=O)OCc2c1cc1n(c2=O)Cc2cc3c(CCN)c(O)ccc3nc2-1 [22S, (20S) 10-Hydroxy-9-aminoethylcamptothecin Acetate Salt]
[3]; [25]
  IC50: 360 nM
[10]
  MTD: 100 mg/kg
[11]
  In Vivo Antitumor Activity ILS (increase in lifespan): 75%
